Experimental data from ChEMBL document CHEMBL1127429, “4-Deacetyltaxol and 10-acetyl-4-deacetyltaxotere: synthesis and biological evaluation” (J Med Chem, 1994).

Key:
[1] = In vitro binding affinity to reduce the supernatant protein concentration of the microtubule
[2] = Ratio of ED50 to that of taxol.

SMILES | ED50 [1] | Ratio [2]
CC(=O)O[C@H]1C(=O)[C@@]2(C)[C@H]([C@H](OC(=O)c3ccccc3)[C@]3(O)C[C@H](OC(=O)[C@H](O)[C@@H](NC(=O)c4ccccc4)c4ccccc4)C(C)=C1C3(C)C)[C@]1(O)CO[C@@H]1C[C@@H]2O | > 30 µM | > 32
CC(=O)O[C@H]1C(=O)[C@@]2(C)[C@H]([C@H](OC(=O)c3ccccc3)[C@]3(O)C[C@H](OC(=O)[C@H](O)[C@@H](NC(=O)OC(C)(C)C)c4ccccc4)C(C)=C1C3(C)C)[C@]1(O)CO[C@@H]1C[C@@H]2O | > 30 µM | > 32
CC(=O)O[C@H]1C(=O)[C@@]2(C)[C@H]([C@H](OC(=O)c3ccccc3)[C@]3(O)C[C@H](OC(=O)[C@H](O)[C@@H](NC(=O)c4ccccc4)c4ccccc4)C(C)=C1C3(C)C)[C@]1(OC(C)=O)CO[C@@H]1C[C@@H]2O | 0.93 µM | 1
